The values that follow come from patent EP3169154B1, “DILUENT FOR SEMEN PRESERVATION” (Politécnico Colombiano Jaime Isaza Cadavid, priority 2014, dated 2016).

Assay [1] deals with semen ejaculates. The experiment in a line: Inhibition of ROS production in semen ejaculates. The conditions noted are these: for inhibition at 20 µM: 20 µM in diluent of Example 1; for inhibition at 40 µM: 40 µM in diluent of Example 1; for inhibition at 50 µM: 50 µM in diluent of Example 1; for inhibition at 60 µM: 60 µM in diluent of Example 1; for inhibition at 80 µM: 80 µM in diluent of Example 1; for inhibition at 100 µM: 100 µM in diluent of Example 1. The assay is classed as cell-based. As for the experimental part: (§1) Two diluents are prepared in accordance with Example 1, adding isoespintanol to one of them, and thymol to the other. In order to determine the cytoprotective (antioxidant) potential of each, the effects of adding different concentrations of these compounds to semen ejaculates were studied. The inhibition of ROS production and the reduction of lipid peroxidation were assessed, thereby determining the effective range as well as the maximum inhibitory concentration of thymol and isoespintanol (Tables 2 and 3). Table 2. Results of the inhibition of ROS production

Assay [2] has as its system semen ejaculates. As to the kind of experiment: Lipid peroxidation inhibition in semen ejaculates. Type of assay: cell-based. The conditions noted are these: for inhibition at 20 µM: 20 µM in diluent of Example 1; for inhibition at 40 µM: 40 µM in diluent of Example 1; for inhibition at 50 µM: 50 µM in diluent of Example 1; for inhibition at 60 µM: 60 µM in diluent of Example 1; for inhibition at 80 µM: 80 µM in diluent of Example 1; for inhibition at 100 µM: 100 µM in diluent of Example 1. As for the experimental part: as §1

Assay [3] relates to carrageenan-induced foot inflammation. To be noted: some rodents; cited from earlier work.
For the next assay, the system named is interleukin-1β. The conditions noted are these: cited from earlier work.

Each structure is given as a SMILES string.

Broadly, the inhibition is how much of the control response was suppressed. A high value points to a strong effect. In the assay with semen ejaculates [1], `COc1cc(C)c(OC)c(O)c1C(C)C` [isoespintanol, 2-isopropyl-3,6-dimethoxy-5-methylphenol] registered an inhibition at 20 µM of 16%, an inhibition at 40 µM of 24.2%, an inhibition at 50 µM of 34.5% and an inhibition at 60 µM of 16.9%. In addition, in the assay on semen ejaculates [1], the inhibition at 80 µM is 6.1% and at 100 µM the inhibition was 5.6%. Moreover, in the assay on semen ejaculates [2], testing at 20 µM gave an inhibition of 21.1%, the inhibition at 40 µM worked out at 29.9%, testing at 50 µM gave an inhibition of 29.4% and the inhibition at 60 µM worked out at 51.1%. Also, in the assay on semen ejaculates [2], testing at 80 µM gave an inhibition of 42.1% and the inhibition at 100 µM worked out at 29.8%. The “reduction of carrageenan-induced foot inflammation” value in assay [3] is 43%. Further, in the assay with interleukin-1β, the “reduction of interleukin-1β production” value is recorded as not above 72%.

Consider `Cc1ccc(C(C)C)c(O)c1` [thymol, 2-isopropyl-5-methylphenol, reference compound], for which, in the assay with semen ejaculates [1], at 20 µM the inhibition was 11.7%, the inhibition at 40 µM came to 12.3%, the inhibition at 50 µM is 51.2% and the inhibition at 60 µM was determined as 26%. In the assay on semen ejaculates [1], this compound displayed an inhibition at 80 µM of 21% and an inhibition at 100 µM of 27.6%. In the assay with semen ejaculates [2], this compound had an inhibition at 20 µM of 48.1%, an inhibition at 40 µM of 47.7%, an inhibition at 50 µM of 40.8% and an inhibition at 60 µM of 36.6%. In the assay with semen ejaculates [2], this compound returned an inhibition at 80 µM of 47% and an inhibition at 100 µM of 28.3%.
